In turn, `COc1ccccc1-n1nc(S(=O)(=O)c2ccc(Cl)cc2)c(C)c(C#N)c1=O` yielded a melting point of 175 to 178 °C.

The molecule `CCOCc1nc2c(N)nc3cc(-c4ccsc4)ccc3c2n1CC(C)(C)O` registered a melting point of 204 to 205 °C.

As for `CNC(=O)N1C(=S)C2(CCCCC2)NC12CCCCC2`, the melting point fell in the range of 127 to 129 °C.

`CCOC(=O)CN(C)S(=O)(=O)c1ccsc1C(=O)OC` returned a melting point of 84 to 85 °C.

Consider `Cc1c(OCCCOc2cc(C(C)(C)C)c(O)c(C(C)(C)C)c2C)cc(C(C)(C)C)c(O)c1C(C)(C)C`, for which the melting point was 120 °C.

`C[Si](C)(C)c1ccc(F)c([Si](C)(C)C)c1C(=O)N1CCCC1`: the melting point lay within 97 to 100 °C.

`CC(C)(Cc1ccc(Cl)cc1Cl)C(O)(Cn1cncn1)Cn1cncn1` came in with a melting point of 126 °C.

`CC(=O)OC1C(COC(=O)c2ccccc2)OC(n2cc(Cl)c(N)nc2=O)C1F` (stereo not drawn) had a melting point of 233 °C.

`Cn1nnnc1-c1cn(C)c2cc(S(C)=O)ccc2c1=O` (stereo not drawn): the melting point lay within 237 to 240 °C.

`CNC(=S)C1(c2cnccn2)CCCS1` (stereo not drawn) showed a melting point of 127 °C.

Molecule `COC(=O)CCOc1ccc(CNC(=O)[C@@H]2Cc3ccccc3N2S(=O)(=O)c2ccc(C(C)(C)C)cc2)cc1` showed a melting point of 50 to 52 °C.

For the molecule `CCC(CC)c1ccc(Cl)c2nc3n(c12)CCCCN3c1ccc(S(C)=O)cc1C` (stereo not drawn), the melting point was 189 to 190 °C.

For the molecule `COc1ccc(C(=O)N[C@H]2C[C@@H](c3cc(NC(=O)Cc4cccc5ccccc45)n[nH]3)C2)cc1`, the melting point came to 176 °C.

In turn, `COc1ccc2cc(C(C)C(=O)NCC3(C)CCC4C(=C(C)C(C)=CC4(C)O)O3)ccc2c1` (stereo not drawn) had a melting point of 67 to 70 °C.

For the molecule `CCCn1cc(Cc2ccc(C(=O)O)cc2OC)c2cc(CC(C)C(=O)N3CCCC3)ccc21` (stereo not drawn), the melting point fell in the range of 92 to 100 °C.

Molecule `CC(=O)ONC(=O)N1CCC(=Cc2cc(C(C)(C)C)c(O)c(C(C)(C)C)c2)C1=O` yielded a melting point of 165 to 166 °C.

The molecule `O=C(O)CCCc1ccc(-c2ccc(F)cc2F)cc1` gave a melting point of 76 to 77 °C.

`O=C1CO[C@@H]2c3ccccc3OCC[C@H]2N1` (relative stereo) showed a melting point of 246 to 248 °C.

Molecule `CC(CC(=O)OC(C)C)N=c1sc2ccccc2s1` (stereo not drawn) showed a melting point of 44 °C.

Turning to `CC(C)(C)OC(=O)c1ccc[nH]1`, the melting point lay in the range of 87 to 89 °C.

The molecule `O=C(c1ccc(I)cc1)N1CCOCC1` returned a melting point of 116 to 117 °C.

With `CCc1nc2c(C)cc(C)nc2n1-c1ccc(CCNC(=O)NS(=O)(=O)c2ccncc2)cc1`, the melting point fell in the range of 228 to 229 °C.

As to `CCc1noc(C)c1-c1[nH]c2ccccc2c1C(O)CN(C)C` (stereo not drawn), the melting point fell in the range of 178 to 180 °C.

Molecule `CC(=O)Oc1cc(-c2ccccc2)ccc1C1(OC(C)=O)C(=O)c2ccccc2C1=O` showed a melting point of 165 to 167 °C.

Consider `FC(F)(F)c1cc(CNCc2cc3ccccc3nc2N2CCN(CC3CCCCC3)CC2)cc(C(F)(F)F)c1`, for which the melting point fell in the range of 54 to 55 °C.

As for `COC(=O)c1ccc(C(=O)Oc2ccc([Si](C)(C)C)cc2C(C)=O)cc1`, the melting point lay in the range of 88.5 to 90.5 °C.

Molecule `CC(=O)CN1CCNC1=Nc1cc2c(cc1Br)OCCO2` displayed a melting point of 98 to 100 °C.

Molecule `O=C1CCC(c2ccccc2)(c2ccccc2)[C@@H]2CN(C(=O)Cc3c(F)cccc3F)C[C@H]12` (racemic) returned a melting point of 218 °C.

`COc1cc(OC)nc(Oc2cc(C)nc(-c3ccccc3)c2C(=O)O)n1` registered a melting point of 277 to 284 °C.

Consider `O=C(NCC(F)(F)F)C1(CCCCSc2nccs2)c2ccccc2-c2ccccc21`, for which the melting point was 143 to 144 °C.

As to `Cn1cc(C2=C(c3cn(CCCNc4ccc([N+](=O)[O-])cn4)c4ccccc34)C(=O)NC2=O)c2ccccc21`, the melting point is 245 to 247 °C.

Take `Cc1cc(O)c(Oc2ccccc2C#N)cc1Br`: the melting point lay within 99 to 101 °C.

Consider `CCCS(=O)(=O)c1c(S(N)(=O)=O)c(C)nn1C`, for which the melting point was in the range of 127 to 129 °C.

In the case of `Fc1cc(-c2cc(C(F)(F)F)n3cnc(-c4ccncc4)c3n2)ccc1C(F)(F)F`, the melting point is 267 °C.

`C=C(C#N)C(=O)NCCCc1ccccc1` returned a melting point of 83 °C.

For the molecule `Cc1ccc(C=Nc2cc(F)ccc2C(=O)O)cc1`, the melting point lay within 144 to 145 °C.

The molecule `CCCCCCCCCCCCCCCCOc1cc(OC)c([N+](=O)[O-])cc1OC` gave a melting point of 71 °C.

`O=Cc1ccc(CNc2ccccn2)c(Cl)c1` registered a melting point of 122 to 123 °C.

Turning to `Clc1cc(Br)cnc1Br`, the melting point lay within 40 to 41 °C.

Consider `CCOc1ccc(C=C(CS)C(=O)NCCC(=O)O)cc1`, for which the melting point was 148 °C.

`O=C(Nc1cccc(-c2cccc(-n3c(=O)c(Cc4cccnc4)nc4cccnc43)c2)c1)C(F)(F)F` displayed a melting point of 138 to 144 °C.

With `CC1(C)CCC(C)(C)c2cc(C(O)C#Cc3ccc(C(=O)O)cc3)ccc21` (stereo not drawn), the melting point lay within 146 to 147 °C.

The molecule `CNC(=S)NCc1ccc(Br)nc1` came in with a melting point of 117 to 118 °C.

`C=Cc1ccc(C(=O)Oc2ccc(S(=O)(=O)Nc3ccccc3)cc2)cc1` registered a melting point of 59 to 60 °C.

`CN(C)c1nc(N)c(-c2cc(Cl)cc(Cl)c2Cl)c(C(F)(F)F)n1` had a melting point of 124 to 126 °C.

The molecule `CCCCCCCCC(O)CNCCNCC(O)CCCCCCCC` (stereo not drawn) displayed a melting point of 140 to 146 °C.

The molecule `COCCOc1cc(OCCOC)c2c(=O)[nH]c(-c3cc(C)nc(C)c3)nc2c1` had a melting point of 150 to 151 °C.

In turn, `CO/N=C1\CCCC[C@@H]1NC(=O)c1cc(-c2ccc(Cl)cc2)c(O[C@@H](C)C(F)(F)F)cn1` came in with a melting point of 123 to 125 °C.

Molecule `O=C1c2cc3c(cc2-c2c1c(Cl)nc1ccccc21)OCO3` gave a melting point of 265 to 270 °C.

For `OC(CN1CCCC1)c1cc(C(F)(F)F)nc2c(C(F)(F)F)cccc12` (stereo not drawn), the melting point is 92 to 94 °C.

In turn, `CCC(CC)N(Cc1ccc(C(=O)OC)cn1)S(=O)(=O)c1ccc(F)cc1` returned a melting point of 117 to 119 °C.

Regarding `O=C(CCl)Nc1ccc2c(c1NC(=O)C1CCCCC1)C(=O)c1ccccc1C2=O`, the melting point lay within 216 to 217 °C.

Consider `NC(=O)c1ncn2c1[C@@H]1CCN1C(=O)c1cc(F)ccc1-2`, for which the melting point fell in the range of 223 to 224 °C.

The molecule `COC(=O)CCCc1ccc(S(=O)(=O)Nc2ccc(Cl)cc2)cn1` returned a melting point of 80 to 81 °C.

In turn, `CCOC(=O)C1=C(C)N=C(SCc2ccc(OC)cc2)N(C(=O)OCC)C1c1cccc(OC)c1` (stereo not drawn) returned a melting point of 79 to 81 °C.

`CCOc1ccc(-c2nc3n(c2-c2ccc(OCC)cc2)CCC3)cc1` came in with a melting point of 135 to 138 °C.

The molecule `O=C(O)c1ccc(NCCCOc2ccc(Cl)cc2)cc1` displayed a melting point of 180 to 181 °C.

`N#Cc1nn(-c2ccc(S(N)(=O)=O)cc2)c2c1CSc1ccccc1-2` showed a melting point of 211 to 213 °C.

For `Cc1ccc(S(=O)(=O)Nc2ccc(SC#N)cc2)cc1`, the melting point was in the range of 122 to 124 °C.

For `C=CCNS(=O)(=O)c1ccc(I)cc1`, the melting point lay within 76 to 77 °C.

On to `O=c1cnc(-c2cc(Br)cc(-c3ccsc3)c2)nn1CC(F)(F)F`, for which the melting point lay in the range of 180 to 182 °C.

As for `CN(C)CC1=NC(O)(CCl)CS1` (stereo not drawn), the melting point was 90 to 92 °C.

With `CS(=O)(=O)Nc1ccc(NC(=O)C(=O)N2CCC(Cc3ccccc3)CC2)cc1`, the melting point lay in the range of 221 to 225 °C.

The molecule `COc1cc(C(=O)N2Cc3ccc(C(=O)NCc4ccc(C)cc4C)n3Cc3ccccc32)ccc1-c1ccccc1C` showed a melting point of 161 to 162 °C.

The molecule `Cc1cc(N)nc(N)n1` returned a melting point of 183 °C.

`CC(=O)C(=[N+]=[N-])C(=O)OCc1ccc([N+](=O)[O-])cc1`: the melting point was found to be 132 °C.

`CNC(=O)c1c(NC(=O)c2cc(C(F)(F)F)nn2-c2ncccc2Cl)ccc2cn[nH]c12` displayed a melting point of 190 to 192 °C.

The molecule `CC(C)c1cc(Oc2ccc(Cl)cc2C(=O)O)cc(C(C)C)c1` returned a melting point of 129 to 130 °C.

The molecule `Cc1c(C(=O)Nc2ccc(N3CCC(NCCO)CC3)c(C#N)c2)cnn1-c1ccc(Cl)cc1` returned a melting point of 181 °C.

The molecule `CCOC(=O)c1cc2cc(NC(C)=O)ccc2nn1` had a melting point of 256 to 258 °C.

In turn, `N=C(N)NCCCOc1ccc2c(c1)N(Cc1ccccc1)C(=O)C(CC(=O)O)C2` (stereo not drawn) registered a melting point of 172 to 173 °C.

The molecule `CCCN(C(=O)OCC(Cl)(Cl)Cl)C1CN(C(=O)Nc2ccc(C(F)(F)F)cc2)N=C1c1ccc(Cl)cc1` (stereo not drawn) returned a melting point of 172 to 173 °C.

`O=C(O)c1ccnc(-c2ccc(Cl)c(C(=O)NCC34CC5CC(CC(C5)C3)C4)c2)c1` came in with a melting point of 284 to 287 °C.

Molecule `COc1ccc(C(CC(=O)Nc2cc(C(N)=O)ccc2C(C)(C)C)CC(C)C)c(OC)c1` (stereo not drawn) gave a melting point of 194 to 196 °C.

In the case of `O=C(NN=C1C=CC=NC1)c1cccnc1`, the melting point was in the range of 213 to 216 °C.

As for `COn1c(C(C)C)nc2c(N)nc3ccccc3c21`, the melting point is 217 to 219 °C.

`CCC(O)c1cc2ccccc2cc1CO` (stereo not drawn) gave a melting point of 70 °C.

In turn, `CN1C(=O)C(=Cc2nc(C(C)(C)C)c(O)c(C(C)(C)C)n2)SC1=S` had a melting point of 226 to 228 °C.

In the case of `O=C(Nc1cn(C2CCCCO2)nc1C(=O)NCCC(F)(F)F)c1ccccn1` (stereo not drawn), the melting point lay within 144 to 145 °C.

Molecule `OC1CCCCCC/C1=C\Br` (stereo not drawn) had a melting point of 144 to 145 °C.

For the molecule `CCOC(OCC)c1coc2cc3c(cc2c1=O)OCO3`, the melting point lay within 123 to 125 °C.

Regarding `CC(C)Oc1ccc(C(=O)N2CCNC2=Nc2c(Cl)cccc2Cl)cc1`, the melting point lay in the range of 146 to 148 °C.

Molecule `CC(=O)OCC1=NC(NC(=O)Nc2cccc(C)c2)C(=O)N(CC(=O)N2CCCCCCC2)c2c(C)cccc21` (stereo not drawn) yielded a melting point of 112 to 114 °C.

For the molecule `COCOc1ccc(CO[Si](C)(C)C(C)(C)C)c2cccc(C)c12`, the melting point lay within 42 to 43 °C.

For the molecule `CC(=O)N1CCC(O)(Cn2nc(-c3c(-c4ccccc4)nn4ccccc34)ccc2=O)CC1`, the melting point lay in the range of 163 to 165 °C.

In the case of `COCCn1cc(C(=O)O)c2c(C(=O)N3CCOCC3)cccc21`, the melting point was 201 to 203 °C.

Turning to `N[C@H]1C[C@H]2[C@H](C(=O)O)[C@H]2[C@]1(N)C(=O)O`, the melting point was greater than 250 °C.

In turn, `CC(C)(C)OC(=O)C(C)(C)ON=C1C=CC=CC1CC(=O)O` (stereo not drawn) returned a melting point of 102 to 105 °C.

The term melting point denotes the temperature of the solid-liquid transition.

Values taken from a melting point compilation (Tetko et al.; mined from patent text by program, amines drawn as free bases though some values may be those of a salt).
